Results as given in ChEMBL document CHEMBL5108009, “Positron Emission Tomography (PET) Imaging Tracers for Serotonin Receptors” (J Med Chem, 2022).

Assays:
[1] = target: 5-hydroxytryptamine receptor 7 (Rattus norvegicus, UniProt P32305); experiment: Binding affinity to rat brain 5-HT7 receptor assessed as inhibition constant incubated for 60 mins; format: tissue-based
[2] = target: T1, 5-hydroxytryptamine receptor 2B (Homo sapiens, UniProt P41595); experiment: Displacement of [3H]-mesulergine from 5-HT2B (unknown origin) assessed as inhibition constant by radioligand competitive binding assay
T1 sequence (P41595 whole entry): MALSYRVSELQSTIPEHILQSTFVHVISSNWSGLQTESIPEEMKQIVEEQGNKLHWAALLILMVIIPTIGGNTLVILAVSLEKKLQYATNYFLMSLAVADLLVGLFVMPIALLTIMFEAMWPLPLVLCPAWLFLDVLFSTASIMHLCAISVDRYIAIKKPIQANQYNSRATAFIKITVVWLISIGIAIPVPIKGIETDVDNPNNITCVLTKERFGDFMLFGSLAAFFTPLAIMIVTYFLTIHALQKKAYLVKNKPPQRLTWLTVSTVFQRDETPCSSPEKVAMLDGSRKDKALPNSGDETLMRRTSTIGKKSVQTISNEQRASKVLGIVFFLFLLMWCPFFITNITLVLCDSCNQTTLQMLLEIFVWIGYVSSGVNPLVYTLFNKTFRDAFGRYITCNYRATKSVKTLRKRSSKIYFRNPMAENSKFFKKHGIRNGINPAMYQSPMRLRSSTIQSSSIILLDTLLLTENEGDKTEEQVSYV

[3] = target: T2, 5-hydroxytryptamine receptor 1A (Homo sapiens, UniProt P08908); experiment: Displacement of [3H]-mesulergine from 5-HT1A (unknown origin) assessed as inhibition constant by radioligand competitive binding assay
T2 sequence (P08908 whole entry): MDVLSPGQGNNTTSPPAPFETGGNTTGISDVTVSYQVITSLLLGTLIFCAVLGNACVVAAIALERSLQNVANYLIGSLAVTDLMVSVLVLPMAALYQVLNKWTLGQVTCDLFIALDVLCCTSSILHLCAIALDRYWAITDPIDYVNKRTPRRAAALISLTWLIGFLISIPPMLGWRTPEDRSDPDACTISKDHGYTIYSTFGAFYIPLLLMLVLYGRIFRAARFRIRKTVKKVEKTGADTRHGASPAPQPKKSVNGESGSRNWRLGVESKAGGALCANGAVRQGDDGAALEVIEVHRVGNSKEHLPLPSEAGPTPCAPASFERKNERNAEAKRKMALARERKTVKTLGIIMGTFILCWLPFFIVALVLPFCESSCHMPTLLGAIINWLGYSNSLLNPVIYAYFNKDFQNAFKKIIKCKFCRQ

[4] = In vivo binding affinity of Papio anubis baboon 5-HT2C assessed as inhibition constant measured after 1 to 21 mins postinjection; format: functional, organism-based
[5] = target: T3, 5-hydroxytryptamine receptor 2C (Homo sapiens, UniProt P28335); experiment: Displacement of [3H]-mesulergine from 5-HT2C (unknown origin) assessed as inhibition constant by radioligand competitive binding assay
T3 sequence (P28335 whole entry): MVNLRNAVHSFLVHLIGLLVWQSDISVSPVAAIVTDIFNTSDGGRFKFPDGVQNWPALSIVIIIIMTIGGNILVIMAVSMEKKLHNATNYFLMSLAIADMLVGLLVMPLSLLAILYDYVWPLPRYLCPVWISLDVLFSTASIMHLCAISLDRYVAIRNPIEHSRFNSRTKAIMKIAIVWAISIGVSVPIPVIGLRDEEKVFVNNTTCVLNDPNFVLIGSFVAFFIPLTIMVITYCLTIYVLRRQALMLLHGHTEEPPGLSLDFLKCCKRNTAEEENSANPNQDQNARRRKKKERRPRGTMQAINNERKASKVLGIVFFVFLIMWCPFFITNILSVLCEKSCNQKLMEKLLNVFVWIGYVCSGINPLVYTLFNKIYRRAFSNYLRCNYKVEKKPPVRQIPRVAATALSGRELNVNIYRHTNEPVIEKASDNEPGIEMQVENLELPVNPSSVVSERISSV

[6] = target: T4, 5-hydroxytryptamine receptor 2A (Homo sapiens, UniProt P28223); experiment: Antagonist activity at human 5-HT2A receptor incubated for 3 hrs by radioligand binding assay; format: functional
T4 sequence (P28223 whole entry): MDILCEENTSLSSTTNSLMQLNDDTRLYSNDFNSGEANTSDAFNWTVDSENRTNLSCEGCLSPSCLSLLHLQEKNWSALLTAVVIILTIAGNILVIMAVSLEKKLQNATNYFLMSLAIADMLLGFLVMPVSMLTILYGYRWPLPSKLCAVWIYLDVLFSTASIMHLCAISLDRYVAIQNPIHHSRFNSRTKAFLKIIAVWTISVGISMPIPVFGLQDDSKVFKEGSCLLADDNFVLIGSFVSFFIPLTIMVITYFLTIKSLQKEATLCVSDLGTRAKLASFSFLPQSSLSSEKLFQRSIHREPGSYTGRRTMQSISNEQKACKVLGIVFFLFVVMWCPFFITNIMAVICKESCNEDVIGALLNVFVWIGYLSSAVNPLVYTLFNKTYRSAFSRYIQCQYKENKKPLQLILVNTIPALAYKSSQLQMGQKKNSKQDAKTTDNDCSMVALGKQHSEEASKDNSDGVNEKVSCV

[7] = target: T4, 5-hydroxytryptamine receptor 2A; experiment: Inverse agonist activity at human 5-HT2A receptor incubated for 3 hrs by radioligand binding assay; format: functional
D(2) dopamine receptor = D(2) dopamine receptor (Rattus norvegicus, UniProt P61169); experiment: Displacement of [3H]-spiperone from rat striatal membrane D2 receptor; format: cell membranes, Striatum
D(2) dopamine receptor, sequence (P61169 whole entry): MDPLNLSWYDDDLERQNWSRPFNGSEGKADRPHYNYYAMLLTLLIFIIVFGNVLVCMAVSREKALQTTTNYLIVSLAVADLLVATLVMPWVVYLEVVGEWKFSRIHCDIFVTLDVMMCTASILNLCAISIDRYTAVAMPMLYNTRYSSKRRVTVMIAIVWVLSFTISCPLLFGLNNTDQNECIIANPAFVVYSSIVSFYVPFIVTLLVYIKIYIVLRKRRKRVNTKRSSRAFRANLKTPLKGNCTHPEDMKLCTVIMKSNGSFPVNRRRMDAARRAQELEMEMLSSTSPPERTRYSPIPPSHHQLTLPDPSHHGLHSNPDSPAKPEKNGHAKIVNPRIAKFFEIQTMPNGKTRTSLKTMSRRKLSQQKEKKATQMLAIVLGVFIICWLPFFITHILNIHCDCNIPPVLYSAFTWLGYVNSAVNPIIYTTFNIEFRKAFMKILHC

[8] = target: T5, 5-hydroxytryptamine receptor 2A (Rattus norvegicus, UniProt P14842); experiment: Displacement of [3H]-Ketanserin from rat cortical membrane 5-HT2A receptor; format: cell membranes, Cortex
T5 sequence (P14842 whole entry): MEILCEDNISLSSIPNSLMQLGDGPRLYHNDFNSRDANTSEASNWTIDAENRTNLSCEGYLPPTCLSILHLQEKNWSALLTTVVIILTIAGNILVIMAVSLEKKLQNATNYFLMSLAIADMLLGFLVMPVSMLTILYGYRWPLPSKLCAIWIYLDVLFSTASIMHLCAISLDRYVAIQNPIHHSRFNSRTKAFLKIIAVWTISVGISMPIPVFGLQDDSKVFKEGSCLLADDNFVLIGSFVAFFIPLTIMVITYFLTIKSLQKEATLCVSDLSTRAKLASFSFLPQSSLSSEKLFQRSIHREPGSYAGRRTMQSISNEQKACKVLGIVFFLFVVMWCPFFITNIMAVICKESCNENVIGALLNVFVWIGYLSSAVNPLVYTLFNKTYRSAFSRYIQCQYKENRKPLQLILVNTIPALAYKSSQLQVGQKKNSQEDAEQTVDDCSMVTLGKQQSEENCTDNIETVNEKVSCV

[9] = target: T6, Alpha-1A adrenergic receptor (Rattus norvegicus, UniProt P43140); experiment: Displacement of [3H]prazosin from rat whole brain alpha1 adrenergic receptor; format: tissue-based
T6 sequence (P43140 whole entry): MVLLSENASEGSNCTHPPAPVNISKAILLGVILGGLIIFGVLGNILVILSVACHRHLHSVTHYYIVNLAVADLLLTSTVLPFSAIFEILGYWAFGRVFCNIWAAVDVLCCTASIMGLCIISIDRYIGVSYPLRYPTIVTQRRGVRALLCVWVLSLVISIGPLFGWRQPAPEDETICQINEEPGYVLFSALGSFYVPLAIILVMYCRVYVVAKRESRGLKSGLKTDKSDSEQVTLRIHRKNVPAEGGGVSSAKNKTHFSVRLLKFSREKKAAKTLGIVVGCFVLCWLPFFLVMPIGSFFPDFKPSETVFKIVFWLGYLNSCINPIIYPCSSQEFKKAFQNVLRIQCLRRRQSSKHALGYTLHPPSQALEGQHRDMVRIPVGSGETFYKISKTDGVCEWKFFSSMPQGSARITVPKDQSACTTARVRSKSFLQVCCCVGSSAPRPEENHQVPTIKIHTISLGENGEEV

[10] = Drug uptake in human frontal cortex assessed as non-displaceable binding potential; format: ADME, tissue-based
[11] = Ratio of drug uptake in rat cortex to cerebellum at steady state; format: ADME, tissue-based; conditions: in vivo
[12] = Drug uptake in rat brain frontal cortex relative to control; format: ADME, tissue-based; conditions: in vivo
[13] = Ratio of drug uptake in baboon cerebral cortex to cerebellum measured at 60 mins postinjection; format: ADME, organism-based, Papio; conditions: in vivo, 1 h
[14] = Ratio of drug uptake in human frontal cortex to cerebellum; format: ADME, tissue-based, Brain frontal cortex/cerebellum
[15] = Ratio of drug uptake in human striatum to cerebellum; format: ADME, tissue-based
[16] = Ratio of drug uptake in baboon striatum to cerebellum measured at 60 mins postinjection; format: ADME, organism-based, Papio; conditions: in vivo, 1 h
[17] = Drug uptake in pig striatum relative to control; format: ADME, tissue-based, Sus scrofa; conditions: in vivo
[18] = target: 5-hydroxytryptamine receptor 6 (Homo sapiens, UniProt P50406); experiment: Binding affinity to human recombinant 5-HT6 receptor assessed as inhibition constant
5-hydroxytryptamine receptor 6, sequence (P50406 whole entry): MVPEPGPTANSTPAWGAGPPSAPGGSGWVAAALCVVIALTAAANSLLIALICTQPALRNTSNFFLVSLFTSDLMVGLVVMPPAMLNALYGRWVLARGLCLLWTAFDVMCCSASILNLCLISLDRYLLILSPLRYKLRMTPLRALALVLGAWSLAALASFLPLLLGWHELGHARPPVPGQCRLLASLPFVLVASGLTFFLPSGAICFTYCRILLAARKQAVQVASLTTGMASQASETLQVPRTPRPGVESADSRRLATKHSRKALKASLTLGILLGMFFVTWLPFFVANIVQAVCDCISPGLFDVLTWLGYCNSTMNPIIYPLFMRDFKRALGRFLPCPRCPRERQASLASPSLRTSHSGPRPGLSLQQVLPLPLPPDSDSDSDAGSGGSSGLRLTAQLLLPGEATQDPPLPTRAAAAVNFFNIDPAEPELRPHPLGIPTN

[19] = Drug uptake in Papio anubis striatum relative to control; format: ADME, tissue-based
[20] = target: T4, 5-hydroxytryptamine receptor 2A; experiment: Binding affinity to human recombinant 5-HT2A assessed as inhibition constant
[21] = Drug uptake in human striatum relative to control; format: ADME, tissue-based
[22] = target: T3, 5-hydroxytryptamine receptor 2C; experiment: Binding affinity to 5-HT2C (unknown origin) assessed as inhibition constant by liquid scintillation counter analysis
[23] = target: T1, 5-hydroxytryptamine receptor 2B; experiment: Binding affinity to 5-HT2B (unknown origin) assessed as inhibition constant by liquid scintillation counter analysis
[24] = target: T5, 5-hydroxytryptamine receptor 2A; experiment: Binding affinity to rat 5-HT2A assessed as inhibition constant by liquid scintillation counter analysis
[25] = target: T5, 5-hydroxytryptamine receptor 2A; experiment: Antagonist activity at rat 5-HT2A receptor; format: functional
[26] = target: 5-hydroxytryptamine receptor 7 (Homo sapiens, UniProt P34969); experiment: Binding affinity to human 5-HT7 receptor transfected by pcDNA3.1(+) vector in HEK293 cells assessed as inhibition constant by Cheng-Prusoff equation analysis; format: cell-based
5-hydroxytryptamine receptor 7 (Homo sapiens, UniProt P34969), sequence (P34969 whole entry): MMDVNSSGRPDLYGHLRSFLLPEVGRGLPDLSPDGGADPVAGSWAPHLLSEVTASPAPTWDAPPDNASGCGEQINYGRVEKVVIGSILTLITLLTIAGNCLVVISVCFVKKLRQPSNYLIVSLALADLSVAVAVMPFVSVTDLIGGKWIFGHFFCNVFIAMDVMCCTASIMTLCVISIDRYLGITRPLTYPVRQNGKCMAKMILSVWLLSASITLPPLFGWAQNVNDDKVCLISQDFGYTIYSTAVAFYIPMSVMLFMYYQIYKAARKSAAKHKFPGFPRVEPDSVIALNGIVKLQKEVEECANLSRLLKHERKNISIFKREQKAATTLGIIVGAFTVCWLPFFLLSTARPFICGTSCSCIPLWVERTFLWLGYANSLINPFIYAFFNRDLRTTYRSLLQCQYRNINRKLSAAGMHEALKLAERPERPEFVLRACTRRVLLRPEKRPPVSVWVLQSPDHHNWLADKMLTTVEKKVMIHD

5-hydroxytryptamine receptor 7 (Rattus norvegicus, UniProt P32305), sequence (P32305 whole entry): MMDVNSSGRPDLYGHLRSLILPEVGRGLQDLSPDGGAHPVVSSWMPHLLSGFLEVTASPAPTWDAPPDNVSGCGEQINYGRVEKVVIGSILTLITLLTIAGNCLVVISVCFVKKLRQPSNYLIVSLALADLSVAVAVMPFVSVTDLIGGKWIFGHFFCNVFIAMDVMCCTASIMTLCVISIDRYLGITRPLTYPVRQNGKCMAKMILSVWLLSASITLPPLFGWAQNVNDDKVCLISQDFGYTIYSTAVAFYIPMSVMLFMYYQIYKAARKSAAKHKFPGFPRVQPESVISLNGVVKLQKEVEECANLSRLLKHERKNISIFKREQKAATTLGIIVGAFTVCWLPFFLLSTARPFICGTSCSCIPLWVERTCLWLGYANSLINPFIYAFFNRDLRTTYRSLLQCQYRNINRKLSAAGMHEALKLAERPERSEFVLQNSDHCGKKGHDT

Molecule `CC1CCN(CC[C@H]2CCCN2S(=O)(=O)c2cccc(OCC[18F])c2)CC1` has a Ki [1] of 0.75 nM.

In the case of `[11CH3]N1CCc2nc3ccnn3c(N3CCC3)c2CC1`, the Ki [2] is reported as over 1000 nM, the Ki [3] is reported as over 1000 nM and the Ki [4] is reported as 161 nM. It also gave a Ki [5] of 75 nM.

`COc1ccc(C(=O)N(Cc2ccc(C)cc2)C2CCN(C)CC2)cc1` gave a Ki [6] of 2.5 nM and a Ki [7] of 2.1 nM.

With `Cc1ccc2c(c1)c(-c1ccc(F)cc1)c(C)n2C1CCN(C)CC1` the Ki (D(2) dopamine receptor) was 2600 nM, the Ki [8] was 5.3 nM and the Ki [9] was 2700 nM.

For `COc1c(OCC[18F])cccc1C(O)C1CCN(CCc2ccc(F)cc2)CC1` (racemic), the Drug uptake [10] was 1.5 and the Ratio [11] was 3.2.

For `COc1cccc([C@H](O)C2CCN(CCc3ccc([18F])cc3)CC2)c1OC`, the Drug uptake [12] was over 94%.

`Cc1nc2n(c(=O)c1CCN1CCC(C(=O)c3ccc([18F])cc3)CC1)CCS2` gave a Ratio [13] of 3, a Ratio [14] of 2.53 and a Ratio [15] of 2.38. It also gave a Ratio [16] of 3.5.

For `[11CH3]N1CCN(c2cccc3cc(S(=O)(=O)c4cccc(F)c4)cnc23)CC1`, the Drug uptake [17] was 3.5 %Idose/L, the Ki [18] was 0.79 nM and the Drug uptake [19] was 10.5 %Idose/L. For the same molecule, the Ki [20] was 0.16 nM and the Drug uptake [21] was 11.5 %Idose/L.

Work on `COc1cc(CCNCc2ccccc2OC)c(OC)cc1I` yielded a Ki [22] of 7 nM, a Ki [23] of 2.3 nM and a Ki [24] of 2.2 nM.

Molecule `COc1cccc(CCc2ccccc2OCC[C@@H]2C[C@@H](O)CN2C)c1` has a Ki [25] of 0.79 nM.

With `COc1ccc(-c2c([N+](=O)[O-])ccn2C)cc1` the Ki [26] was 16.8 nM.
